What was measured:
Assay in all cases: relative viability (nuclei count vs DMSO), 5 days (fraction); higher = more cells survive
[1] = compound: C1CC1C(=O)NC2=NNC3=C2C=CC(=C3)C4=CC(=CC=C4)C(=O)NC5CC5 [XMD13-2] + C[C@]1(O)C[C@@H](c2nc(-c3ccc4ccc(-c5ccccc5)nc4c3)c3c(N)nccn32)C1 [Linsitinib] (partner 1 µM)
In short: (§1)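 Medians of duplicate plates are given as relative viability. That measure is the nuclei count in treated wells divided by the count in vehicle wells. Counts were taken on 4× images of lung cancer cell lines in 1536-well plates, 5 days after pin-tool dosing the day after seeding with one drug alone or a fixed anchor-drug dose plus five library-drug doses (not always all listed) in √10 steps.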

[2] = compound: C1CC1C(=O)NC2=NNC3=C2C=CC(=C3)C4=CC(=CC=C4)C(=O)NC5CC5 [XMD13-2] + CS(=O)(=O)N1CCN(Cc2cc3nc(-c4cccc5[nH]ncc45)nc(N4CCOCC4)c3s2)CC1 [Pictilisib] (partner 1 µM)
In short: as §1

[3] = compound: Cc1nc(Nc2ncc(C(=O)Nc3c(C)cccc3Cl)s2)cc(N2CCN(CCO)CC2)n1 [Dasatinib] + Nc1nc2[nH]cc(CCc3ccc(C(=O)N[C@@H](CCC(=O)O)C(=O)O)cc3)c2c(=O)[nH]1 [Pemetrexed] (partner 0.2 µM)
In short: as §1

[4] = compound: Cc1nc(Nc2ncc(C(=O)Nc3c(C)cccc3Cl)s2)cc(N2CCN(CCO)CC2)n1 [Dasatinib] + Nc1ncn([C@H]2C[C@H](O)[C@@H](CO)O2)c(=O)n1 [Decitabine] (partner 2 µM)
In short: as §1

**Q.** For UMC-11, which relative viability ([1]; first compound 0.05 µM) is on record?
**A.** 1.18

**Q.** And the relative viability ([1]; first compound 0.1581 µM)?
**A.** 0.942

**Q.** And the relative viability ([1]; first compound 0.5 µM)?
**A.** 0.996

**Q.** What about the relative viability ([1]; first compound 1.581 µM) of the same cell line?
**A.** 1.07

**Q.** And the relative viability ([1]; first compound 5 µM)?
**A.** 1.04

**Q.** What about the relative viability ([2]; first compound 0.05 µM) of the same cell line?
**A.** 0.943

**Q.** And the relative viability ([2]; first compound 0.1581 µM)?
**A.** 0.8

**Q.** And the relative viability ([2]; first compound 0.5 µM)?
**A.** 0.704

**Q.** What about the relative viability ([2]; first compound 1.581 µM) of the same cell line?
**A.** 0.803

**Q.** And the relative viability ([2]; first compound 5 µM)?
**A.** 0.71

**Q.** And the relative viability ([3]; first compound 0.005 µM)?
**A.** 0.736

**Q.** And the relative viability ([3]; first compound 0.01581 µM)?
**A.** 0.656

**Q.** And the relative viability ([3]; first compound 0.05 µM)?
**A.** 0.593

**Q.** What about the relative viability ([3]; first compound 0.1581 µM) of the same cell line?
**A.** 0.469

**Q.** And the relative viability ([3]; first compound 0.5 µM)?
**A.** 0.391

**Q.** What about the relative viability ([4]; first compound 0.005 µM) of the same cell line?
**A.** 0.58

**Q.** What about the relative viability ([4]; first compound 0.01581 µM) of the same cell line?
**A.** 0.595

**Q.** What about the relative viability ([4]; first compound 0.05 µM) of the same cell line?
**A.** 0.532

**Q.** What about the relative viability ([4]; first compound 0.1581 µM) of the same cell line?
**A.** 0.292

**Q.** And the relative viability ([4]; first compound 0.5 µM)?
**A.** 0.246

— the supplement of paper PMC10307832
